Here are results for 89 compounds from a melting point compilation (Tetko et al.; mined from patent text by program, amines drawn as free bases though some values may be those of a salt).

Usually melting point stands for the temperature, or range, at which the solid turns liquid. Turning to `CCCCCCC1(c2cc(O)c([C@@H]3CC(=O)C4CC3C4(C)C)c(O)c2)OCCO1` (some centres undefined), the melting point lay within 185 to 186 °C. Then `CONC(=O)c1cc(C(=O)OC)c(O)c2ncc(Cc3ccc(F)cc3)cc12`, with 200 to 201 °C; and `CCCCCCC1CCC(c2ccc(CCCCC)cc2)OC1=O` (centres undefined), with 101 to 102 °C. Then `CN1C(=O)CN(c2cccc(I)c2)NC1=O`, with 180 °C.

Regarding `Cc1ccc(-c2c(NS(=O)(=O)c3ccc(C(C)(C)C)cc3)ncnc2OCCOc2ccc(NC(=O)C(C)(C)C)cn2)cc1`, the melting point is 140 to 141 °C. Then `NC1=C2C=NN=C2N(c2ccccc2)CN1c1ccccc1`, with 244 to 246 °C. The same measure for `N#Cc1cnc(N)cc1N`: 197 to 198 °C; for `Cn1ncc(-c2nn(-c3cccc(C(F)(F)F)c3)ccc2=O)c1-c1ccccc1`: 193 to 195 °C. The same measure for `COC(=O)C1(C)CCCC2(C)c3c(OC)cc(C(C)C)c(OC)c3CCC12` (centres undefined): 133 to 135 °C. `ON=Cc1ccc(-c2ccc(O)c(F)c2)c2ccccc12` returned a melting point of 187 to 188 °C.

`COC(=O)C[C@H](O)CC(=O)CCc1c(-c2ccc(F)cc2)c(-c2ccccc2)c(C(=O)Nc2ccccc2)n1C(C)C`: the melting point lay in the range of 75 to 77 °C.

With `CSc1c(C)c(-c2cc(OS(=O)(=O)C(F)(F)F)c(Cl)cc2F)nn1C`, the melting point lay within 54 to 56 °C. The same measure for `COC(=O)c1ccc(I)cc1N`: 63 to 67 °C; for `COC(=O)c1[nH]c2c(C)ccc(C)c2c1Cl`: 115 to 116 °C; for `Cc1ccccc1Cc1cccnn1`: 88 to 89 °C. The same measure for `S=C(NCc1cccc(Cl)c1)N1CCc2c([nH]c3ccccc23)C1c1ccc2c(c1)OCO2` (centres undefined): 189 to 191 °C; for `COc1ccc(C(C)(O)CO)cc1CN[C@H]1C2CCN(CC2)[C@H]1C(c1ccccc1)c1ccccc1` (some centres undefined): 65.5 to 82.8 °C. Then `CCOC(=O)C=Cc1ccc(OCc2ccccc2)c(OC)c1`, with 74.5 to 75 °C; and `O=C(c1ccccc1)N1CCNc2ncc(I)cc21`, with 164 to 166 °C; and `COC(=O)c1cc(C(=O)c2c(C)c(OC)c3ccc(O)cn23)ccc1N`, with 216 °C. With `CC(=O)Nc1ccc(C(=O)O)c2c1OCCO2`, the melting point was 233 °C. Compound `COC(=O)c1cccc2[nH]c3ccccc3c12` displayed a melting point of 84.3 °C. The same measure for `O=C(Nc1ccc(-n2ccnc2)cc1)NC12CC3CC(CC(C3)C1)C2`: 272 to 276 °C; for `CCOC(=O)C(CCc1ccc2c(c1)OCO2)(Cc1cc(OC)c(OC)c(OC)c1)C(=O)OCC`: 79.5 to 81 °C; for `CC(C)[C@H](NC(=O)OCc1ccccc1)C(=O)N[C@@H](Cc1ccccc1)[C@@H](O)[C@@H](O)[C@H](Cc1ccccc1)NC(=O)[C@@H](NC(=O)N1CCN(C)CC1)C(C)C`: 216 to 219 °C. The same measure for `O=C(Nc1cc2ccccc2cn1)c1cncnc1NCc1ccncc1`: 218 to 220 °C; for `Cc1nsc(OCC(Cl)(Cl)Cl)c1S(N)(=O)=O`: 140 to 142 °C. The same measure for `COc1cc(O)cc2cc(-c3ccc(O)cc3)oc12`: 167 to 168 °C; for `OC(c1ccccc1)C(CN1CC=C(c2ccc(Cl)cc2)CC1)c1ccccc1` (centres undefined): 135 to 137 °C.

Take `CCCCC(=O)N(CCOCc1ccccc1)Cc1ccc(-c2ccccc2-c2nnn[nH]2)cc1`: the melting point is 109 to 110 °C. Then `CCCCCCCCCCCCCCP(=O)(OC)OC`, with 32 to 33 °C; and `Cc1nc(NCc2ccccn2)n(C)c(=O)c1CCO`, with 245 °C; and `OCc1cn2c(n1)CN=C(c1ccccn1)c1cc(Br)ccc1-2`, with 176 to 178 °C. The same measure for `CCCCCCCCOc1cccc2c1OCO2`: 120 °C; for `COc1ccccc1-c1c(NC(=O)OCc2ccccc2)oc(=O)c2ccccc12`: 144 to 146 °C. On to `COc1ccc(N2CCN(c3ccc(-n4c(C)nn(CC(=O)c5ccc(Cl)cc5)c4=O)cc3)CC2)cc1`, for which the melting point was found to be 230 °C. The same measure for `O=C(CCCOc1ccc2nc3[nH]c(=O)[nH]c3cc2c1)NC1CCCCC1`: above 320 °C; for `CCCCc1nc(C(C)(C)O)c(C(=O)OCc2oc(=O)oc2C)n1Cc1ccc(-c2ccccc2C(=O)O)cc1`: above 70 °C; for `C=CCSc1cc(C(=O)O)cc(N)c1Oc1ccccc1`: 142 to 143 °C. Then `N#CNc1nc2ccc(Cl)cc2[nH]1`, with above 300 °C; and `Nc1csc2c([N+](=O)[O-])cccc12`, with 188 to 191 °C.

Take `Fc1ccc(Cn2c(NC3CCN(CCOc4nccs4)CC3)nc3ccccc32)cc1`: the melting point worked out at 156 °C. Then `c1csc(-c2noc(COc3ccc(CCCn4ccnc4)cc3)n2)c1`, with 118 to 119 °C; and `COc1nc2cc([N+](=O)[O-])c(C)c(C(=O)N[C@@H](Cc3ccccc3)C(=O)OC(C)(C)C)c2nc1OC`, with 86 to 88 °C.

As for `COc1cccc(N2C(c3ccccc3Cl)=NS(=O)(=O)c3cnccc32)c1`, the melting point fell in the range of 227 to 229 °C. `CCC12CCC(=O)C3Oc4c(O)ccc5c4C31CCN(CC1CC1)C2C5` (centres undefined) returned a melting point of 157 to 158 °C.

For `CCCC(O)(Cn1nc[nH]c1=S)c1ccc(Cl)cc1Cl` (centres undefined), the melting point is 148 °C. The same measure for `CCOC(=O)c1ccc(-c2ccc(OCCCI)c(-c3ccc4c(c3)C(C)(C)CCC4(C)C)c2)cc1`: 118 °C; for `COc1cc(Nc2nccc(-c3cccc(OCCO)c3)n2)cc(OC)c1OC`: 70 °C; for `COCCCN1C(=O)COc2ccc(Br)cc21`: 193 to 195 °C.

In turn, `COC(=O)CCC(=O)Nc1cccc(COc2ccc(C(C)=O)c(OC)c2)c1` showed a melting point of 124 °C.

`CCc1nnc2c(N(C)C)nc3ccccc3n12` came in with a melting point of 155 to 158 °C. The same measure for `CCCCCCCCCCc1ccc(CCC(N)(CO)CCO)cc1` (centres undefined): 69 to 72 °C. The same measure for `CC(C)(C)OC(=O)CCc1ccc(C[C@H](NC(=O)OC(C)(C)C)C(=O)O)cc1`: 88.5 to 90 °C; for `COC(=O)C(C)(C)CCCCCOc1ccc(N2C(=O)c3ccccc3C2=O)cc1`: 82 to 83 °C; for `O=C(c1ccc(F)cc1)C1CCN(CCN2C(=O)Nc3ccc(Cl)cc3C2c2ccccc2)CC1` (centres undefined): 196 °C. The same measure for `COc1cc(S(=O)(=O)c2ccccc2)ccc1[N+](=O)[O-]`: 128 to 130 °C. `CCCCNc1c(N)c(N)nc(C)c1C(=O)OCC` came in with a melting point of 82 to 83 °C. Then `CCCCc1cc2ccccc2c(Oc2ccc(/C=C/C(=O)O)cc2)c1-c1ccc(OC)cc1`, with 186 to 187 °C; and `COc1ccc(C=O)cc1CCl`, with 55 to 57 °C. Compound `COc1cc(/C=C/C(=O)Nc2ccccc2C(=O)O)ccc1OCc1cn(CC(=O)Nc2ccccc2)nn1` returned a melting point of 220 to 222 °C. Regarding `CCc1nc2cc(OC)c(OC)cc2c(-c2ccc(OC)c(OC)c2)c1CO`, the melting point lay in the range of 192 to 193 °C.

Compound `CCOC(=O)Cc1cccc(Cn2ccc(OCc3ccc(F)cc3F)c(Br)c2=O)c1` had a melting point of 95 to 98 °C.

Regarding `N#Cc1sc2cc(NC(=O)OCc3ccccc3)ccc2c1Cl`, the melting point lay within 155 to 166 °C. The same measure for `COc1ccc(-c2coc3ccc(-c4nnc(SCc5cccc(C(F)(F)F)c5)o4)cc23)cc1`: 119 to 120 °C. The same measure for `Cc1c(Cc2cccc(C(F)(F)F)c2)oc2c(-c3cccc(C(=O)NCCO)c3)cccc12`: 158 to 159 °C. Then `CC1(C)CC(C)(C)CC(CCCC(=O)O)(NC(=O)CCl)C1`, with 140 to 141 °C; and `Cc1nc(-c2nn(Cc3ccccc3F)c3ccccc23)oc1CO`, with 144 °C; and `COc1ccc2c(c1)CCn1c-2ncc(C(=O)O)c1=O`, with 232 to 234 °C.

For the compound `NS(=O)(=O)c1ccc(NN=C2C(=O)Nc3cc(Oc4ccccc4)ccc32)cc1`, the melting point is above 250 °C. Then `Cc1cc2c(cc1C1=NNC(=O)CC1)N(C)C(=O)CO2`, with 227 to 228 °C; and `O=C1c2cc(F)ccc2-n2cnc(C(=O)n3ccnc3)c2[C@@H]2CCCN12`, with 206 to 207 °C. Then `O=C(O)CNC(=O)c1cc(Br)nc(Br)c1`, with 151 to 152 °C; and `Cc1ccc2c(c1)C(CCO)N(c1cccc([N+](=O)[O-])c1)N(C)C2=O` (centres undefined), with 169 to 170 °C.

For `CN1C(=O)[C@H](NC(=O)CC2CCCCC2)N=C(c2ccccc2)c2ccccc21`, the melting point is 144 to 146 °C.

In turn, `O=C(O)c1ccc(NC(=O)C(CC2CCCC2)c2cccc(Cl)c2)nc1` (centres undefined) gave a melting point of 251 to 255 °C.

For `CS(=O)(=O)c1ccc2c(c1)C1(O)C(C2)SC(=Nc2ccccc2)N1c1ccccc1` (centres undefined), the melting point was 75 °C. Then `Cc1cc(-n2ccnc2)c2cccc(OCc3c(Cl)ccc(S(=O)(=O)N4CCC[C@H]4C(=O)NCCc4ccncc4)c3Cl)c2n1`, with 120 °C; and `CCCn1c(=O)[nH]c(=O)c2[nH]c(/C=C/c3ccccc3)nc21`, with above 295 °C. Compound `c1ccc2c(NCC3CCCCC3)c3cnn(C4CCCC4)c3nc2c1` returned a melting point of 290 to 292 °C.

`OCCNCCOc1ccc(C2=C(c3ccccc3)CCCc3cc(O)ccc32)cc1` returned a melting point of 176 to 178 °C. `C[C@@H](N[C@@H](CC(=O)O)Cc1cc(F)c(F)cc1F)c1ccccc1` yielded a melting point of 144 °C. The same measure for `Nc1nc(Cl)c(N)c(NCCCCO)n1`: 110 to 111 °C. Then `C=CCOC1OC(C(O)CO)C(OCc2ccccc2)C1O` (centres undefined), with 84 to 85 °C; and `CC(NC(=O)CNC(=O)c1c(Cl)cccc1Cl)c1ccccc1` (centres undefined), with 155 °C. The same measure for `CCc1ccc(C(=O)Nc2ccccc2)cc1[N+](=O)[O-]`: 111 to 113 °C. `CC(COc1cccc(=O)n1O)CC(C)(C)C` (centres undefined): the melting point worked out at 134 °C. In the case of `COc1ccc2c(c1)c1c(n2C)C2(C)CCC(=O)N2CC1` (centres undefined), the melting point lay in the range of 164 to 167 °C. `O=C(NNc1ccccc1Cl)c1ccccc1F`: the melting point lay within 105 to 107 °C.
